Our source for the Activity, inhibition and Tm values is ChEMBL document CHEMBL5032491, “New Dibenzoquinoxalines Inhibit Triple-Negative Breast Cancer Growth by Dual Targeting of Topoisomerase 1 and the c-MYC G-Quadruplex” (J Med Chem, 2021).

Activity calls are given as the source filed them. The rule behind the calls is not given here.

Assay [1] has as its system MDA-MB-231. Briefly: Antiproliferative activity against human MDA-MB-231 cells assessed as inhibition of cell growth incubated for 24 hrs by CCK8 assay. Format: functional, cell-based.
Assay [2] deals with Quadruplex DNA. Briefly: Inhibition of c-myc G4-quadruplex DNA transcriptional activity in human MDA-MB-231 cells incubated for 24 hrs by RT-PCR analysis. It counts as cell-based.
Assay [3] concerns Quadruplex DNA. The experiment in a line: Stabilization of c-Myc G-quadruplex DNA (unknown origin ) assessed as increase in melting temperature at 6 uM by CD spectroscopy. It counts as nucleic-acid assay.
Assay [4] deals with MDA-MB-231. Briefly: Inhibition of BCL-2 gene transcription expression in human MDA-MB-231 cells at 0.5 to 2 uM incubated for 24 hrs by RT-PCR analysis. Format: functional, cell-based. The conditions noted are these: dose 0.5-2 µM.
In assay [5] the test system is MDA-MB-231. The experiment in a line: Inhibition of VEGF gene transcription expression in human MDA-MB-231 cells at 0.5 to 2 uM incubated for 24 hrs by RT-PCR analysis. Format: functional, cell-based. The conditions noted are these: dose 0.5-2 µM.
Assay [6] concerns MDA-MB-231. Briefly: Induction of DNA damage in human MDA-MB-231 cells assessed as increase in gammaH2AX incubated for 24 hrs by western blotting analysis. It counts as functional, cell-based. For orientation: Immunoblotting shows a protein as a band on a membrane.
Assay [7] deals with MDA-MB-231. Briefly: Induction of cell cycle arrest in human MDA-MB-231 cells assessed as accumulation at sub-G1 phase at 2 uM incubated for 24 hrs by flow cytometry (reference value: 2.8%). It counts as functional. On the technique in general: Flow cytometry measures light scatter and fluorescence of single cells or particles in a stream.
The subject of assay [8] is MDA-MB-231. The experiment in a line: Induction of cell cycle arrest in human MDA-MB-231 cells assessed as accumulation at S phase at 0.5 uM incubated for 24 hrs by flow cytometry (reference value: 19.2%). It counts as functional.
Assay [9] has as its system MDA-MB-231. The experiment in a line: Induction of cell cycle arrest in human MDA-MB-231 cells assessed as accumulation at S phase at 2 uM incubated for 24 hrs by flow cytometry (reference value: 19.2%). It counts as functional.
Assay [10] deals with MDA-MB-231. The experiment in a line: Induction of cell cycle arrest in human MDA-MB-231 cells assessed as accumulation at G2/M phase at 1 uM incubated for 24 hrs by flow cytometry (reference value: 20.4%). It counts as functional.
The test system of assay [11] is MDA-MB-231. Briefly: Antiproliferative activity against human MDA-MB-231 cells assessed as inhibition in cell growth at 2.5 uM incubated for 24 hrs by CCK8 assay. Format: functional, cell-based. In general terms: Formazan colour is commonly taken as a measure of viable cells.
Assay [12] relates to Quadruplex DNA. Briefly: Binding affinity to c-myc G4-quadruplex DNA (unknown origin) at 1 uM in presence of ct-DNA by fluorescence spectroscopy. It counts as nucleic-acid assay.

For `COc1ccc2nc3c4ccc(N5CCN(C)CC5)cc4c4cc(N5CCN(C)CC5)ccc4c3nc2c1`, the Activity result was “Dose-Dependent Effect” in assay [1]; 20.2% in assay [7]; 20.3% in [8]; 16.6% in assay [9]; 24.9% in [10]. In addition, the inhibition entry in assay [2] is “Active”. Further, in [3], the Tm was 30 °C. Further, the inhibition result in assay [4] and in assay [5] was “inactive” each time. Moreover, the result in [6], in assay [11] and in assay [12] was Active.
